From patent publication EP0275431A1, “Novel anthracycline derivatives, a process for preparing same and their use as medicaments” (MICROBIAL CHEMISTRY RESEARCH FOUNDATION, priority 1986, dated 1988)
In brackets after ≈: the same amount, converted by molar mass.

Assays:
[1] = Solubility in phosphate buffer solution (pH 7.4) at room temperature; assay type: physicochemical; details: aqueous buffer
Protocol: The phosphate buffer solution was prepared by mixing 0.05M potassium dihydrogenphosphate (KH2PO4) with an aqueous solution of sodium hydroxide.

[2] = tested on: mouse leukemia L-1210 cells; assay: Antitumor activity: increase of life span of mice transplanted intraperitoneally with leukemia L-1210 cells; details: beginning 24 hours after transplantation, observed for 30 days, CDF mice
Protocol: To assess the antitumor activity of the compounds of this invention against tumors in test animals, 1 x 10^5 mouse leukemia L-1210 cells mouse were transplanted intraperitoneally to CDF, mice. […] The survival time, in days, of the compound-treated group (T) was calculated, and that of the control group (C) receiving physiological saline solution alone was also calculated. Then, the increase of life span (T/C, %) was determined.

[3] = Dose 0.15 mg/kg/day intraperitoneally for 9 consecutive days
[4] = Dose 0.3 mg/kg/day intraperitoneally for 9 consecutive days
[5] = Dose 0.6 mg/kg/day intraperitoneally for 9 consecutive days
[6] = Dose 1.25 mg/kg/day intraperitoneally for 9 consecutive days
[7] = Dose 2.5 mg/kg/day intraperitoneally for 9 consecutive days
[8] = Dose 5 mg/kg/day intraperitoneally for 9 consecutive days

COc1cccc2c1C(=O)c1c(O)c3c(c(O)c1C2=O)CC(O)(C(=O)COC(=O)CCCCCC(=O)O)CC3OC1OC(C)C(O)C(O)C1F [Compound 11 of Example 5(b), 7-0-(2,6-dideoxy-2-fluoro-α-L-talopyranosyl) adriamycinone 14-0-hemipimelate]
solubility [1]: 33 mg/mL (≈ 46.8 mM)
Increase of life span (T/C, %) [2, 3]: 165%
Increase of life span (T/C, %) [2, 4]: 171%
Increase of life span (T/C, %) [2, 5]: 176%
Increase of life span (T/C, %) [2, 6]: >294%
Increase of life span (T/C, %) [2, 7]: >271%
Increase of life span (T/C, %) [2, 8]: >353%

COc1cccc2c1C(=O)c1c(O)c3c(c(O)c1C2=O)CC(O)(C(=O)COC(=O)CCCCC(=O)O)CC3OC1OC(C)C(O)C(O)C1F [Compound 9 of Example 4(b), 7-0-(2.6-dideoxy-2-fluoro-a-L-talopyranosyl) adriamycinone 14-0-hemiadipate]
solubility [1]: 33 mg/mL (≈ 47.8 mM)
Increase of life span (T/C, %) [2, 3]: 112%
Increase of life span (T/C, %) [2, 4]: 141%
Increase of life span (T/C, %) [2, 5]: 165%
Increase of life span (T/C, %) [2, 6]: 265%
Increase of life span (T/C, %) [2, 7]: >353%
Increase of life span (T/C, %) [2, 8]: >353%

COc1cccc2c1C(=O)c1c(O)c3c(c(O)c1C2=O)CC(O)(C(=O)COC(=O)CCC(=O)O)CC3OC1OC(C)C(O)C(O)C1F [Compound 5 of Example 2(b), 7-0-(2,6-dideoxy-2-fluoro-a-L-talopyranosyl) adriamycinone 14-0-hemisuccinate]
solubility [1]: 25 mg/mL (≈ 37.7 mM)
Increase of life span (T/C, %) [2, 4]: 124%
Increase of life span (T/C, %) [2, 5]: >124%
Increase of life span (T/C, %) [2, 6]: >292%
Increase of life span (T/C, %) [2, 7]: >353%
Increase of life span (T/C, %) [2, 8]: > 353%

COc1cccc2c1C(=O)c1c(O)c3c(c(O)c1C2=O)CC(O)(C(=O)COC(=O)CCCCCCC(=O)O)CC3OC1OC(C)C(O)C(O)C1F [Compound 13 of Example 6(b), 7-0-(2,6-dideoxy-2-fluoro-α-L-talopyranosyl) adriamycinone 14-0-hemisuberate]
solubility [1]: 30 mg/mL (≈ 41.7 mM)

CCCCC(=O)OCC(=O)C1(O)Cc2c(O)c3c(c(O)c2C(OC2OC(C)C(O)C(O)C2F)C1)C(=O)c1c(OC)cccc1C3=O [Compound 3 of Example 1(b), 7-0-(2.6-dideoxy-2-fluoro-α-L-talopyranosyl) adriamycinone 14-0-valerate]
solubility [1]: < 1 mg/mL
Increase of life span (T/C, %) [2, 3]: 135%
Increase of life span (T/C, %) [2, 4]: 135%
Increase of life span (T/C, %) [2, 5]: >353%
Increase of life span (T/C, %) [2, 6]: >353%
Increase of life span (T/C, %) [2, 7]: >282%
Increase of life span (T/C, %) [2, 8]: > 306%

COc1cccc2c1C(=O)c1c(O)c3c(c(O)c1C2=O)CC(O)(C(=O)CO)CC3OC1OC(C)C(O)C(O)C1F [Control, 7-O-(2,6-dideoxy-2-fluoro-α-L-talopyranosyl)adriamycinone, reference compound]
solubility [1]: < 1 mg/mL

COc1cccc2c1C(=O)c1c(O)c3c(c(O)c1C2=O)CC(O)(C(=O)COC(=O)CCCC(=O)O)CC3OC1OC(C)C(O)C(O)C1F [Compound 7 of Example 3(b), 7-0-(2.6-dideoxy-2-fluoro-a-L-talopyranosyl) adriamycinone 14-0-hemiglutarate]
solubility [1]: 26 mg/mL (≈ 38.4 mM)
Increase of life span (T/C, %) [2, 3]: 129%
Increase of life span (T/C, %) [2, 4]: 129%
Increase of life span (T/C, %) [2, 5]: >235%
Increase of life span (T/C, %) [2, 6]: 282%
Increase of life span (T/C, %) [2, 7]: >294%
Increase of life span (T/C, %) [2, 8]: > 306%
